Source: patent publication US6620820B2, “Inhibitors of bone reabsorption and antagonists of vitronectin receptors” (Hoechst Aktiengesellschaft, priority 1996, dated 2003)

What follows are molecules tested against T1, human vitronectin receptor (VnR) αVβ3 (Homo sapiens, UniProt P05106+P06756) (assay: Inhibition of the binding of Kistrin to human vitronectin receptor (VnR) αVβ3: ELISA test (Kistrin/VnR)). Conditions: plates coated with Kistrin, test method 2.
T1 construct: Human vitronectin receptor is isolated from the human placenta using the method of Pytela et al; from tissue; host or cells: human placenta (alternatively 293 cells cotransfected with αV and β3 DNA)
T1 sequence (P06756 31-889 limits assumed): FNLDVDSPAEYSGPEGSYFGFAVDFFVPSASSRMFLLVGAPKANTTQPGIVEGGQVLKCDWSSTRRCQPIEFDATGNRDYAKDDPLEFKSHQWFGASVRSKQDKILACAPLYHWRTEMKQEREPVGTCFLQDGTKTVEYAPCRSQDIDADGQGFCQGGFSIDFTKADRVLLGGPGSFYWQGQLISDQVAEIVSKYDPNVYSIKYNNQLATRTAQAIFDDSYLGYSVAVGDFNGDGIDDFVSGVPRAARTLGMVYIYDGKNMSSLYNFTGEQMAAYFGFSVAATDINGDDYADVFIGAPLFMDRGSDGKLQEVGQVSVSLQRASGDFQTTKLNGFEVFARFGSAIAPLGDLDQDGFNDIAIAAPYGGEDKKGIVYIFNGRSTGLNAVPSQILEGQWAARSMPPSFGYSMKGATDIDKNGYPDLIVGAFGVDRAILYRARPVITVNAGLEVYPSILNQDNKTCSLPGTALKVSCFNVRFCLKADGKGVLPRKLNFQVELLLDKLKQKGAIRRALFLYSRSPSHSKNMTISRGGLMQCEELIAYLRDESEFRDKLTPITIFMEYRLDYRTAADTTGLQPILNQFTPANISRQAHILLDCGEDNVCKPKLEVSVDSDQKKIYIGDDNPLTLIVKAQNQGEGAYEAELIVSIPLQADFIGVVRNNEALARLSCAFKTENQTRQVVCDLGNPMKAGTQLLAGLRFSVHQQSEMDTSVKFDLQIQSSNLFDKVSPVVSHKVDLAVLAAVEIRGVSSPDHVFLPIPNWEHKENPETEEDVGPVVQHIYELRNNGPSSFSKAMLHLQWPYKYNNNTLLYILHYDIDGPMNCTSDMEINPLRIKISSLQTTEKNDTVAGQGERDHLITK
T1 sequence (P06756 891-1048 partner limits assumed): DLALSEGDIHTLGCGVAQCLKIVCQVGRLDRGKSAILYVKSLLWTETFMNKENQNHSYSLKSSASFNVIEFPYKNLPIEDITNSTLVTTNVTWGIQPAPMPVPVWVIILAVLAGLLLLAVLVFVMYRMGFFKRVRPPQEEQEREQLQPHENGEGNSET
T1 sequence (P05106 27-788): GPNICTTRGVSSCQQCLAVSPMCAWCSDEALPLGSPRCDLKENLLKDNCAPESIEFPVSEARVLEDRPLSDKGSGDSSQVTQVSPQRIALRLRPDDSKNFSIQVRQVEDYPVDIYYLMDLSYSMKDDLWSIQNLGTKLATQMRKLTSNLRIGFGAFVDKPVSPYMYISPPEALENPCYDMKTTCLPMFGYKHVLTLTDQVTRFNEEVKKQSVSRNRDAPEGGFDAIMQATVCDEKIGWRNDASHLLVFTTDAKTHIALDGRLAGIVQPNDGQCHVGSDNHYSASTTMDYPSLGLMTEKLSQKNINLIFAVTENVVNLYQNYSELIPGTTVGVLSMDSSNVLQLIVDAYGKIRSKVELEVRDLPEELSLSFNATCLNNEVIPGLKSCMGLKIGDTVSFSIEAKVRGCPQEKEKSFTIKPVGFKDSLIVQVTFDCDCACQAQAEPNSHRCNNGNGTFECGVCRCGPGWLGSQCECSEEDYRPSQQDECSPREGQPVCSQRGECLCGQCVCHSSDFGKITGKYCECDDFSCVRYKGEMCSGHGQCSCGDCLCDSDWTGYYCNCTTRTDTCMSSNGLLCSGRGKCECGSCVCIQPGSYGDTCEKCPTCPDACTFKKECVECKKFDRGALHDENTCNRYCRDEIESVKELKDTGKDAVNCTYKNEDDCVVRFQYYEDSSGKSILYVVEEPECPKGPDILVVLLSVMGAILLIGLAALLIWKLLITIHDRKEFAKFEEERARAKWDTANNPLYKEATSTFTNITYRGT
Procedure: Nunc Maxisorb 96-well microtiter plates are coated, at 4° C. overnight, with a solution of human vitronectin (0.002 mg/ml, 0.05 ml/well) in PBS (phosphate-buffered sodium chloride solution). The plates are washed twice with PBS/0.05% Tween 20 and blocked by incubating them (for 60 min) with bovine serum albumin (BSA, 0.5%, RIA grade or better) in tris-HCl (50 mM), NaCl (100 mM), MgCl2 (1 mM), CaCl2 (1 mM), MnCl2 (1 mM), pH 7. Solutions of known inhibitors and of the test substances, in concentrations of 2×10^−12−2×10^−6 mol/l, are prepared in assay buffer [BSA (0.5%, RIA grade or better) in tris-HCl (50 mM/l), NaCl (100 mM), MgCl2 (1 mM), CaCl2 (1 mM), MnCl2 (1 mM), pH 7]. The blocked plates are emptied and in each case 0.025 ml of this solution, which contains a defined concentration (from 2×10^−12 to 2×10^−6) of either a known inhibitor or a test substance, is added to each well. 0.025 ml of a solution of the vitronectin receptor in the test buffer (0.03 mg/ml) is pipetted into each well of the plate and the plate is then incubated at room temperature on a shaker for 60-180 min. In the meantime, a solution (6 ml/plate) of a murine monoclonal antibody which is specific for the β3 subunit of the vitronectin receptor is prepared in the assay buffer (0.0015 mg/ml). A second rabbit antibody, which represents an anti-mouse Fc HRP antibody conjugate, is added to this solution (0.001 ml of stock solution/6 ml of the murine mono-clonal anti-β3 antibody solution) and this mixture of the murine anti-β3 antibody and the rabbit anti-mouse Fc HRP antibody conjugate is allowed to incubate while the receptor/inhibitor incubation is in progress. The test plates are washed 4 times with PBS solution containing 0.05% Tween-20 and 0.05 ml of the antibody mixture is in each case pipetted into each well of the plate, which is then incubated for 60-180 min. The plate is washed 4 times with PBS/0.05% Tween-20 and then developed with 0.05 ml/well of a PBS solution which contains 0.67 mg/ml o-phenylenediamine and 0.012% H2O2. Alternatively, o-phenylenediamine can be used in a buffer (pH 5) which contains Na3PO4 (50 mM) and citric acid (0.22 mM). The color development is stopped with 1N H2SO4 (0.05 ml/well). The absorption of each well is measured at 492-405 nm and the data are evaluated using standard methods.
Inhibition of the binding of Kistrin to human vitronectin receptor (VnR) αVβ3: ELISA test
(In the listing of the test results, test method 2 is abbreviated to Kistrin/VnR)
1. Purification of Kistrin
Kistrin is purified using the methods of Dennis et al., as described in Proc. Natl. Acad. Sci. USA 1989, 87, 2471-2475 and PROTEINS: Structure, Function and Genetics 1993, 15, 312-321.
2. Purification of human vitronectin receptor (αVβ3) see test method 1.
3. Monoclonal antibodies see test method 1.
The ability of substances to inhibit the binding of Kistrin to the vitronectin receptor can be elucidated using an ELISA test. For this purpose, Nunc 96-well microtiter plates are coated with a solution of Kistrin (0.002 mg/ml) in accordance with the method of Dennis et al., as described in PROTEINS: Structure, Function and Genetics 1993, 15, 312-321. The subsequent experimental implementation of the ELISA test is as described in test method1, item 4.

SMILES | IC50
N=C(N)NC(=O)NC[C@@H]1NC(=O)N(CC(=O)NC[C@H](NC(=O)OCc2ccccc2)C(=O)O)C1=O [Example 3, (2S)-Benzyloxycarbonylamino-3-[((4S)-(guanidinoacylaminomethyl)-2,5-dioxoimidazolidin-1-yl)acetylamino]propionic Acid] | 360 nM
O=C(CN1C(=O)N[C@@H](CCCNc2ncccn2)C1=O)NC[C@H](NC(=O)OCc1ccccc1)C(=O)O [Example 4, (2S)-Benzyloxycarbonylamino-3-[((4S)-(3-(2-pyrimidylamino)propyl)-2,5-dioxoimidazolidin-1-yl)acetylamino]propionic Acid] | 1660 nM
O=C(CN1C(=O)N[C@@H](CC(=O)NNC2=NCCN2)C1=O)NC[C@H](NC(=O)OCc1ccccc1)C(=O)O [Example 7, (2S)-Benzyloxycarbonylamino-3-[2-((4S)-(N′-(4,5-dihydro-1H-imidazol-2-yl)-hydrazinocarbonylmethyl]-2,5-dioxoimidazolidin-1-yl)acetylamino]propionic Acid] | 580 nM
O=C(CN1C(=O)N[C@@H](CCc2nc3ccccc3[nH]2)C1=O)NC[C@H](NC(=O)OCc1ccccc1)C(=O)O [Example 18] | 810 nM

These reach a lower IC50. Values come first.

IC50 | SMILES
20 nM | O=C(CN1C(=O)N[C@@H](CCCNC2=NCCN2)C1=O)NC[C@H](NC(=O)OCc1ccccc1)C(=O)O [Example 1, (2S)-Benzoylcarbonylamino-3-[2-((4S)-(3-(4,5dihydro-1H-imidazol-2-ylamino)propyl)-2,5-dioxoimidazolidin-1-yl)acetylamino]propionic Acid]
40 nM | O=C(CN1C(=O)N[C@@H](CCCNc2nc3ccccc3[nH]2)C1=O)NC[C@H](NC(=O)OCc1ccccc1)C(=O)O [Example 5, (2S)-Benzyloxycarbonylamino-3-[((4S)-(3-(benzimidazolyl-2-amino)-propyl)-2,5-dioxoimidazolidin-1-yl)acetylamino]propionic Acid]
130 nM | O=C(CN1C(=O)N[C@@H](CC(=O)NNC2=NCCCN2)C1=O)NC[C@H](NC(=O)OCc1ccccc1)C(=O)O [Example 8, (2S)-Benzyloxycarbonylamino-3-[2-(2,5-dioxo-(4S)-(N′-(1,4,5,6-tetrahydro-pyrimidin-2-yl)hydrazinocarbonylmethyl)imidazolidin-1-yl)acetylamino]propionic Acid]
20 nM | N=C(N)NC(=O)CC[C@@H]1NC(=O)N(CC(=O)NC[C@H](NC(=O)OCc2ccccc2)C(=O)O)C1=O [Example 19, (2S)-Benzyloxycarbonylamino-3-[2-((4S)-(3-guanidino-3-oxopropyl) -2,5-dioxoimidazolidin-1-yl)acetylamino]propionic Acid]

The molecules below were run against T1, human vitronectin receptor (VnR) αVβ3 (assay: Inhibition of the binding of human vitronectin (Vn) to human vitronectin receptor (VnR) αVβ3: ELISA test (Vn/VnR)). Conditions: plates coated with human vitronectin, test method 1.
Source text: Inhibition of the binding of human vitronectin (Vn) to human vitronectin receptor (VnR) αVβ3: ELISA-Test.
(In the listing of the test results, test method 1 is abbreviated to Vn/VnR)
1. Purification of human vitronectin
Human vitronectin is isolated from human plasma and purified by affinity chromatography using the method of Yatohyo et al., Cell Structure and Function, 1988, 23, 281-292.
2. Purification of human vitronectin receptor (αVβ3)
Human vitronectin receptor is isolated from the human placenta using the method of Pytela et al., Methods Enzymol. 1987, 144, 475. Human vitronectin receptor αVβ3 can also be isolated from some cell lines (for example from 293 cells, a human embryonic kidney cell line) which are cotransfected with DNA sequences for the two subunits, αV and β3, of the vitronectin receptor. The subunits are extracted with octylglycoside and subsequently chromatographed on concanavalin A, heparin-Sepharose and S-300. […]
Nunc Maxisorb 96-well microtiter plates are coated, at 4° C. overnight, with a solution of human vitronectin (0.002 mg/ml, 0.05 ml/well) in PBS (phosphate-buffered sodium chloride solution). […] The absorption of each well is measured at 492-405 nm and the data are evaluated using standard methods.

IC50 | SMILES
8 nM | O=C(CN1C(=O)N[C@@H](CCCNC2=NCCN2)C1=O)NC[C@H](NC(=O)OCc1ccccc1)C(=O)O [Example 1, (2S)-Benzoylcarbonylamino-3-[2-((4S)-(3-(4,5dihydro-1H-imidazol-2-ylamino)propyl)-2,5-dioxoimidazolidin-1-yl)acetylamino]propionic Acid]
